Data from patent US20250134890A1, “ANTIMALARIAL HEXAHYDROPYRIMIDINE ANALOGUES” (UCB BIOPHARMA SRL, priority 2022, published 2025).
Counter-ions that a name gives are not always drawn. Like-named read-outs stand apart in the source and are kept apart here.

Tested on: Plasmodium falciparum: 3D7 strain
Experiment: P. falciparum 3D7 asexual blood stage assay (SYBR green readout)
Format: cell-based
Settings: P. falciparum 3D7 in human erythrocytes, 72 h incubation, SYBR green fluorescence
Source text: The compounds of the present invention are potent inhibitors of the growth and propagation of the Plasmodium falciparum parasite in human blood.
The assay used to measure the effect of test compounds on a bloodstream stage of Plasmodium falciparum: 3D7 strain employs SYBR green as the readout. This is a dye that binds to double stranded deoxyribonucleic acid (DNA) with a resulting increase in fluorescence, allowing detection of P. falciparum DNA in infected erythrocytes, and thereby providing a measure of parasite growth and propagation.
Erythrocytes (A+blood) were prepared for both parasite culture and assay by washing 4 times with incomplete media (15.9 g RPMI 1640 (25 mM HEPES, L-glutamine), 1 g NaHCO3, 2 g glucose, 400 μL gentacin (500 mg/mL), 2 mL hypoxanthine solution (13.6 g/L in 0.1M NaOH pH 7.3) in 1 litre of media). The cells were centrifuged at 1800 g for 5 minutes, before decanting the supernatant and re-suspending in fresh incomplete media. On the final wash, the cells were re-suspended in complete media (incomplete media with 5 g/L AlbumaxII), and centrifuged at 1800 g for 3 minutes. This cell sediment was treated as 100% haematocrit.
P. falciparum 3D7 was cultured in erythrocytes at 5% haematocrit in complete media at 37° C. (1% O2, 3% CO2, balance N2). Cultures were split on a weekly basis to achieve a 1% parasitaemia in erythrocites at 5% haematocrit in fresh media. Culture media is replaced by fresh media every other day (2 times during the week).
On day 1, test compounds were added to assay plates using Echo dispensing technology ([…] and 20 points titration). 50 nL of each compound dilution was added to 50 μL of culture (5% haematocrit, 0.5% parasitaemia) and incubated for 72 h at 37° C. (1% O2, 3% CO2, balance N2). Final concentrations of test compounds ranged from 50,000 nM to 15 nM, in […].
On day 4, 10 μL SYBR green (Invitrogen S7563 supplied as 10,000×concentrate in DMSO) pre-diluted to 3×concentrate with Lysis buffer (20 mM Tris pH 7.9, 5% EDTA, 0.16% w/v, 1.6% TX100 v/v) was added to the cultures and incubated in the dark, overnight, at room temperature.
On day 5, fluorescent signal was measured using a BioTek plate reader (excitation 485 nm, emission 528 nm). All data were processed using IDBS ActivityBase. Raw data were converted into percent inhibition through linear regression by setting the high inhibition control (mefloquine) as 100% and the no inhibition control (DMSO) as 0%. Quality control criteria for passing plates were as follows: Z′>0.5, S:B>3, % CV(no inhibition control)<15. The formula used to calculate Z′ is: […]
All EC50 curve fitting was undertaken using the following bi-phasic two site dose response using XLfit model 300 (IDBS):
where A=100 minus the top of the upper curve 1 and the bottom of lower curve; B=Hill slope; log(C)=IC50 concentration at lower site; log(D)=IC50 concentration at upper site; x=inhibitor concentration; and y=% inhibition.

[1] = Plasmodium falciparum, 3D7, Erythrocyte, 72 h
[2] = Plasmodium falciparum, Erythrocyte, read-out: IC50

`C[C@@]1(c2cccc(-c3ccc(F)cc3F)c2Cl)CC(=O)N([C@@H]2CCC(F)(F)[C@H](O)C2)C(=N)N1` (relative stereo) [Example 97, (6S)-6-[2-Chloro-3-(2,4-difluoro-phenyl)phenyl]-3-[(1R*,3R*)-4,4-difluoro-3-hydroxycyclohexyl]-2-imino-6-methylhexahydro-pyrimidin-4-one hydrochloride] was tested, and the IC50 [1] was 280 nM.

With `C[C@@]1(c2cccc(-c3ccc(C4CC4)nc3)c2Cl)CC(=O)N([C@@H]2CCC(F)(F)[C@H](O)C2)C(=N)N1` (relative stereo) [Example 98, (6S)-6-[2-Chloro-3-(6-cyclopropyl-pyridin-3-yl)phenyl]-3-[(1R*,3R*)-4,4-difluoro-3-hydroxycyclohexyl]-2-imino-6-methylhexahydro-pyrimidin-4-one hydrochloride] the IC50 [1] was 297 nM.

Work on `C[C@@]1(c2cccc(-c3ccc(C4CC4)nc3)c2Cl)CC(=O)N([C@H]2CCC(F)(F)[C@@H](O)C2)C(=N)N1` (relative stereo) [Example 99, (6S)-6-[2-Chloro-3-(6-cyclopropyl-pyridin-3-yl)phenyl]-3-[(1S*,3S*)-4,4-difluoro-3-hydroxycyclohexyl]-2-imino-6-methylhexahydro-pyrimidin-4-one hydrochloride] yielded an IC50 [1] of 1960 nM.

`C[C@H]1C[C@@H](N2C(=N)N[C@](C)(c3cccc(-c4cccc(Cl)c4)c3Cl)CC2=O)CCN1` (relative stereo) [Example 100, (6S)-6-[2-Chloro-3-(3-chloro-phenyl)phenyl]-2-imino-6-methyl-3-[(2S*,4S*)-2-methylpiperidin-4-yl]hexahydropyrimidin-4-one hydrochloride] showed an IC50 [1] of 373 nM.

`C[C@@H]1C[C@H](N2C(=N)N[C@](C)(c3cccc(-c4cccc(Cl)c4)c3Cl)CC2=O)CCN1` (relative stereo) [Example 101, (6S)-6-[2-Chloro-3-(3-chloro-phenyl)phenyl]-2-imino-6-methyl-3-[(2R*,4R*)-2-methylpiperidin-4-yl]hexahydropyrimidin-4-one hydrochloride] was tested, and the IC50 [1] was 392 nM.

`C[C@H]1C[C@@H](N2C(=N)N[C@](C)(c3cccc(-c4ccc(F)cc4F)c3Cl)CC2=O)CCN1` (relative stereo) [Example 102, (6S)-6-[2-Chloro-3-(2,4-difluoro-phenyl)phenyl]-2-imino-6-methyl-3-[(2S*,4S*)-2-methylpiperidin-4-yl]hexahydropyrimidin-4-one hydrochloride] was tested, and the IC50 [1] was 504 nM.

For `C[C@@H]1C[C@H](N2C(=N)N[C@](C)(c3cccc(-c4ccc(F)cc4F)c3Cl)CC2=O)CCN1` (relative stereo) [Example 103, (6S)-6-[2-Chloro-3-(2,4-difluoro-phenyl)phenyl]-2-imino-6-methyl-3-[(2R*,4R*)-2-methylpiperidin-4-yl]hexahydropyrimidin-4-one hydrochloride], the IC50 [1] was 744 nM.

In the case of `C[C@@H]1C[C@H](N2C(=N)N[C@](C)(c3cccc(-c4cccc(Cl)c4)c3Cl)CC2=O)CC[C@H]1O` (relative stereo) [Example 104, (6S)-6-[2-Chloro-3-(3-chloro-phenyl)phenyl]-3-[(1S*,3S*,4S*)-4-hydroxy-3-methylcyclohexyl]-2-imino-6-methylhexahydro-pyrimidin-4-one hydrochloride], the IC50 [1] is reported as 4940 nM.

For `C[C@H]1C[C@@H](N2C(=N)N[C@](C)(c3cccc(-c4cccc(Cl)c4)c3Cl)CC2=O)CC[C@@H]1O` (relative stereo) [Example 105, (6S)-6-[2-Chloro-3-(3-chloro-phenyl)phenyl]-3-[(1R*,3R*,4R*)-4-hydroxy-3-methylcyclohexyl]-2-imino-6-methylhexahydro-pyrimidin-4-one hydrochloride], the IC50 [1] was 1560 nM.

With `C[C@H]1C[C@@H](N2C(=N)N[C@](C)(c3cccc(-c4ccc(F)cc4F)c3Cl)CC2=O)CCN1C` (relative stereo) [Example 106, (6S)-6-[2-Chloro-3-(2,4-difluoro-phenyl)phenyl]-3-[(2S*,4S*)-1,2-dimethylpiperidin-4-yl]-2-imino-6-methylhexahydropyrimidin-4-one hydrochloride] the IC50 [1] was 94 nM.

Compound `C[C@@H]1C[C@H](N2C(=N)N[C@](C)(c3cccc(-c4ccc(F)cc4F)c3Cl)CC2=O)CCN1C` (relative stereo) [Example 107, (6S)-6-[2-Chloro-3-(2,4-difluoro-phenyl)phenyl]-3-[(2R*,4R*)-1,2-dimethylpiperidin-4-yl]-2-imino-6-methylhexahydropyrimidin-4-one hydrochloride] has an IC50 [1] of 228 nM.

Work on `C[C@@]1(c2cccc(-c3cn(-c4cccc(F)c4)nn3)c2Cl)CC(=O)N([C@H]2CCC(F)(F)[C@@H](O)C2)C(=N)N1` (relative stereo) [Example 108, (6S)-6-{2-Chloro-3-[1-(3-fluoro-phenyl)-1,2,3-triazol-4-yl]phenyl}-3-[(1S*,3S*)-4,4-difluoro-3-hydroxycyclohexyl]-2-imino-6-methylhexahydropyrimidin-4-one hydrochloride] yielded an IC50 [1] of 325 nM.

For `C[C@H]1C[C@@H](N2C(=N)N[C@](C)(c3cccc(-c4cn(-c5cc(F)c(F)cc5F)nn4)c3Cl)CC2=O)CC[C@H]1O` (relative stereo) [Example 112, (6S)-6-{2-Chloro-3-[1-(2,4,5-trifluorophenyl)-1,2,3-triazol-4-yl]-phenyl}-3-[(1S*,3S*,4R*)-4-hydroxy-3-methylcyclohexyl]-2-imino-6-methylhexahydro-pyrimidin-4-one hydrochloride], the IC50 [1] was 132 nM.

`C[C@@H]1C[C@H](N2C(=N)N[C@](C)(c3cccc(-c4cn(-c5cc(F)c(F)cc5F)nn4)c3Cl)CC2=O)CC[C@@H]1O` (relative stereo) [Example 113, (6S)-6-{2-Chloro-3-[1-(2,4,5-trifluorophenyl)-1,2,3-triazol-4-yl]-phenyl}-3-[(1R*,3R*,4S*)-4-hydroxy-3-methylcyclohexyl]-2-imino-6-methylhexahydro-pyrimidin-4-one hydrochloride] showed an IC50 [1] of 540 nM.

In the case of `C[C@H]1C[C@@H](N2C(=N)N[C@](C)(c3cccc(-c4cccc(C(O)C(F)F)c4)c3Cl)CC2=O)CCO1` (single isomer, unassigned) [Example 25, (6S)-6-(2-Chloro-3-{3-[(1R*)-2,2-difluoro-1-hydroxyethyl]phenyl}-phenyl)-2-imino-6-methyl-3-[(2S,4S)-2-methyltetrahydropyran-4-yl]hexahydropyrimidin-4-one hydrochloride], the IC50 [1] is reported as 38 nM.

In the case of `C[C@H]1C[C@@H](N2C(=N)N[C@](C)(c3cccc(-c4cccc(C(O)C(F)F)c4)c3Cl)CC2=O)CCO1` (single isomer, unassigned) [Example 26, (6S)-6-(2-Chloro-3-{3-[(1S*)-2,2-difluoro-1-hydroxyethyl]phenyl}-phenyl)-2-imino-6-methyl-3-[(2S,4S)-2-methyltetrahydropyran-4-yl]hexahydropyrimidin-4-one hydrochloride], the IC50 (hydrochloride) is reported as 55 nM.

`C[C@H]1C[C@@H](N2C(=N)N[C@](C)(c3cccc(-c4cccc(C(O)C(F)(F)F)c4)c3Cl)CC2=O)CCO1` (single isomer, unassigned) [Example 28, (6S)-6-(2-Chloro-3-{3-[(1S*)-2,2,2-trifluoro-1-hydroxyethyl]phenyl}-phenyl)-2-imino-6-methyl-3-[(2S,4S)-2-methyltetrahydropyran-4-yl]hexahydropyrimidin-4-one hydrochloride] was tested, and the IC50 [1] was 26 nM.

`C[C@@]1(c2cccc(-c3cccc(Cl)c3)c2Cl)CC(=O)N(C(CO)C2CC2)C(=N)N1` (single isomer, unassigned) [Example 94, (6S)-6-[2-Chloro-3-(3-chloro-phenyl)phenyl]-3-[(1R*)-1-cyclopropyl-2-hydroxyethyl]-2-imino-6-methylhexahydro-pyrimidin-4-one hydrochloride] was tested, and the IC50 [1] was 88 nM.

In the case of `CN(C)[C@H]1C[C@H](N2C(=N)N[C@](C)(c3cccc(-c4ccc(F)cc4F)c3Cl)CC2=O)C1` (single isomer, unassigned; isomer 1) [Example 88], the IC50 [2] is reported as 657 nM.

Compound `CN(C)[C@H]1C[C@@H](N2C(=N)N[C@](C)(c3cccc(-c4ccc(F)cc4F)c3Cl)CC2=O)C1` (single isomer, unassigned; isomer 2) [Example 89] has an IC50 [2] of 7950 nM.
